Measured values taken from US12187758B2 (ROME Therapeutics, Inc., priority 2022, dated 2025).

How the values were obtained:
Format in all cases: cell-based
[1] = system: phosphorylated TANK-binding kinase 1 (pTBK1); experiment: UVB-induced pTBK1 in HaCaT cells; details: for IC50: Homo sapiens, light or radiation study, pTBK1 response curves, 72 hours compound treatment, UVB
Procedure: pTBK1 is an important signaling molecule in regulating inflammatory responses. HaCaT cells were plated in 6-well plates at a density of ˜100 k/well in HaCaT media (DMEM, optimized 1× (Addex Bio)+ 1% pen strep (Gibco)^+ 5% heat inactivated fetal bovine serum (Gibco)). The cells were then cultured at 37° C. overnight. The next day, the cells were treated with the test compounds. Each test compound was diluted and added to media aliquots to provide desired concentrations. To add the test compound+media mixture, an equivalent amount of media from each well was aspirated and then replenished with the media dosed with the test compound. The cells were then cultured for an additional 72 hours with compound treatment prior to UVB exposure.
The media was then aspirated from the wells, with the remaining cells at least 80% confluent in each well. One mL of PBS was then added to each well, and the plate was then placed under a UVB lamp. A UVB sensor was positioned near the plate to register the plate's exposure. The cells were exposed to the UVB light until they reached 0.1 mJ/cm2. Then the plate was covered and transferred to a sterile hood for processing.
The PBS was aspirated out of the wells, and the wells were replenished with 3 mL fresh culture media. The cells were then cultured for an additional 24 hours, and samples were processed 24 hours post-UVB exposure. To process the samples, the media was aspirated, the plate placed on ice, and the cells washed with cold PBS, which was then aspirated off. Another 1 mL of cold PBS was added to each well. The cells were then scraped in the cold PBS solution and transferred to conical tubes on ice. The cells were then spun at ≥1000 RCF at 4° C. for 5 minutes. The cells were then resuspended in 1 mL of cold PBS and transferred to a microcentrifuge tube. The cells were spun at ≥1000 RCF at 4° C. for another 5 minutes, and the PBS was aspirated off. The cell pellet was prepared for lysis.
A RIPA lysis buffer (#BP-115, Boston BioProducts) was added to a Halt protease and […] inhibitor cocktail (#78440, ThermoFisher), and the mixture was cooled on ice. About 30 μL of the lysis buffer mix was added to the cells. The samples were briefly vortexed and then incubated on ice for at least 15 minutes. The cells were then spun≥1000 RCF at 4° C. for 5 minutes and the supernatant was transferred to a clean tube. The protein concentration of the cell lysate was measured using Pierce™ Rapid Gold BCA Protein Assay Kit #AF3225 (ThermoFisher). ELISA analysis was run on select samples using one of the following kits: • a. FastScan™ Phospho-TBK1/NAK (Ser172) ELISA Kit #46948 (Cell Signaling Technologies) • b. FastScan™ Total TBK1/NAK ELISA Kit #15816 (Cell Signaling Technologies) • c. FastScan™ Phospho-STING (Ser366) ELISA Kit #82083 (Cell Signaling Technologies) • d. FastScan™ Phospho-IRF-3 (Ser396) ELISA Kit #50386 (Cell Signaling Technologies) • e. FastScan™ Total IRF-3 ELISA Kit #29771 (Cell Signaling Technologies) • f. Phospho-NAK/TBK1 (S172) ELISA Kit (ab279952) (Abcam) • g. Phospho-IRF3 (S386) ELISA Kit (ab279833) (Abcam) Part II—Results
In the table “A” represents values≤0.50 μM; “B” represents values from >0.50 μM to ≤2.0 μM; “C” represents values from >2.0 μM to ≤5.0 μM; “D” represents values from >5.0 μM to ≤10 μM; and “E” represents values>10 μM.

[2] = Mitochondria toxicity assay with PC3 cells, in-cell ELISA COX-1; details: 5 days treatment
Outline: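 This in-cell ELISA was run on fixed, permeabilized PC3 cells after 5-day exposure to titrated compound, with cytotoxicity measured on a duplicate plate. Results are reported as categories A (<1.0 μM) to E (>100.0 μM).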

[3] = system: PC3 cells; experiment: Mitochondria toxicity assay with PC3 cells, cytotoxicity (Cell Titer Glo); details: Homo sapiens, PC-3, 120 h, 5 days treatment
Outline: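 PC3 cells in F-12K with 10% FBS exposed to a compound dose titration for 5 days at 37° C, 5% CO2. Viability by Cell Titer Glo luminescence after 30 min at room temperature; values binned A (<1.0 μM) to E (>100.0 μM).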

Row | Compound | IC50 [1] | IC50 [2] | IC50 [3] | cytotoxicity at concentrations [1]
1 | Nc1ccn([C@H]2C[C@H](O)[C@](CO)(CCl)O2)c(=O)n1 [Compound 2, 4-amino-1-((2R,4S,5R)-5-(chloromethyl)-4-hydroxy-5-(hydroxymethyl)tetrahydrofuran-2-yl)pyrimidin-2(1H)-one] | ≤ 0.5 µM | < 1 µM | > 100 µM | –
2 | C[C@@H]1[C@H](n2ccc(N)nc2=O)O[C@@](CO)(CCl)[C@H]1O [Compound 12, 4-amino-1-((2R,3S,4S,5R)-5-(chloromethyl)-4-hydroxy-5-(hydroxymethyl)-3-methyltetrahydrofuran-2-yl)pyrimidin-2(1H)-one] | > 10 µM | > 100 µM | > 100 µM | –
3 | CO[C@@H]1[C@H](n2ccc(N)nc2=O)O[C@@](CO)(CCl)[C@H]1O [Compound 13, 4-amino-1-((2R,3S,4S,5R)-5-(chloromethyl)-4-hydroxy-5-(hydroxymethyl)-3-methoxytetrahydrofuran-2-yl)pyrimidin-2(1H)-one] | > 10 µM | > 100 µM | > 100 µM | –
4 | Nc1nc(=O)n([C@H]2C[C@H](O)[C@](CO)(CCl)O2)cc1F [Compound 14, 4-amino-1-((2R,4S,5R)-5-(chloromethyl)-4-hydroxy-5-(hydroxymethyl)tetrahydrofuran-2-yl)-5-fluoropyrimidin-2(1H)-one] | 0.5 to 2 µM | > 100 µM | > 100 µM | ≥ 30 µM
5 | Nc1ncnc2c1ncn2[C@H]1C[C@H](O)[C@](CO)(CCl)O1 [Compound 15, (2R,3S,5R)-5-(6-amino-9H-purin-9-yl)-2-(chloromethyl)-2-(hydroxymethyl)tetrahydrofuran-3-ol] | > 10 µM | > 100 µM | > 100 µM | –
6 | Nc1ccn([C@H]2C[C@H](O)[C@](CO)(C3CC3)O2)c(=O)n1 [Compound 16, 4-amino-1-((2R,4S,5R)-5-cyclopropyl-4-hydroxy-5-(hydroxymethyl)tetrahydrofuran-2-yl)pyrimidin-2(1H)-one] | > 10 µM | > 100 µM | > 100 µM | –
7 | C[C@@H]1[C@H](n2ccc(N)nc2=O)O[C@](C)(CO)[C@H]1O [Compound 19, 4-amino-1-((2R,3S,4S,5R)-4-hydroxy-5-(hydroxymethyl)-3,5-dimethyltetrahydrofuran-2-yl)pyrimidin-2(1H)-one] | > 10 µM | 10 to 50 µM | 50 to 100 µM | –
8 | C#C[C@]1(CO)O[C@@H](n2cnc3c(N)nc(Cl)nc32)C[C@@H]1O [Compound 25] | – | 50 to 100 µM | > 100 µM | –
9 | Nc1ccn([C@@H]2O[C@@](CO)(CCl)[C@@H](O)[C@@H]2F)c(=O)n1 [Compound 40, 4-amino-1-((2R,3S,4R,5R)-5-(chloromethyl)-3-fluoro-4-hydroxy-5-(hydroxymethyl)tetrahydrofuran-2-yl)pyrimidin-2(1H)-one] | 2 to 5 µM | > 100 µM | > 100 µM | –
10 | CC[C@]1(CO)O[C@@H](n2ccc(N)nc2=O)C[C@@H]1O [Compound 44, 4-amino-1-((2R,4S,5R)-5-ethyl-4-hydroxy-5-(hydroxymethyl)tetrahydrofuran-2-yl)pyrimidin-2(1H)-one] | > 10 µM | > 100 µM | > 100 µM | –
11 | CC[C@]1(CO)O[C@@H](n2ccc(N)nc2=O)[C@@H](F)[C@@H]1O [Compound 51, 4-amino-1-((2R,3S,4R,5R)-5-ethyl-3-fluoro-4-hydroxy-5-(hydroxymethyl)tetrahydrofuran-2-yl)pyrimidin-2(1H)-one] | > 10 µM | 10 to 50 µM | > 100 µM | –
12 | [N-]=[N+]=N[C@]1(CO)O[C@@H](n2cc(F)c(N)nc2=O)C[C@@H]1O [Compound 61, 4-amino-1-((2R,4S,5R)-5-azido-4-hydroxy-5-(hydroxymethyl)tetrahydrofuran-2-yl)-5-fluoropyrimidin-2(1H)-one] | > 10 µM | > 100 µM | > 100 µM | –
13 | Nc1nc(=O)n([C@@H]2O[C@@](CO)(CCl)[C@@H](O)[C@@H]2F)cc1F [Compound 67, 4-amino-1-[(2R,3S,4R,5R)-5-(chloromethyl)-3-fluoro-4-hydroxy-5-(hydroxymethyl)oxolan-2-yl]-5-fluoropyrimidin-2-one] | 2 to 5 µM | > 100 µM | > 100 µM | –
14 | Nc1nc(=O)n([C@@H]2O[C@@](CO)(CF)[C@@H](O)[C@@H]2O)cc1F [Compound 72, 4-amino-5-fluoro-1-((2R,3S,4S,5R)-5-(fluoromethyl)-3,4-dihydroxy-5-(hydroxymethyl)tetrahydrofuran-2-yl)pyrimidin-2(1H)-one] | 5 to 10 µM | 50 to 100 µM | 50 to 100 µM | –
15 | Nc1nc(=O)n([C@@H]2O[C@@](CO)(CF)[C@@H](O)[C@@H]2F)cc1F [Compound 85, 4-amino-5-fluoro-1-[(2R,3S,4R,5R)-3-fluoro-5-(fluoromethyl)-4-hydroxy-5-(hydroxymethyl)oxolan-2-yl] pyrimidin-2-one] | 5 to 10 µM | > 100 µM | > 100 µM | –
16 | Nc1nc(=O)n([C@H]2C[C@H](O)[C@](CO)(CBr)O2)cc1F [Compound 88, 4-amino-1-((2R,4S,5R)-5-(bromomethyl)-4-hydroxy-5-(hydroxymethyl)tetrahydrofuran-2-yl)-5-fluoropyrimidin-2(1H)-one] | > 10 µM | 10 to 50 µM | > 100 µM | –
